From US7642270B2, “5-oxo-5,8-dihydro-pyrido-pyrimidine as inhibitors of c-fms kinase” (Janssen Pharmaceutica N.V., priority 2005, dated 2010)

Biological target: c-fms (Homo sapiens, UniProt P07333)
Assay: c-fms autophosphorylation, fluorescence polarization competition immunoassay
Assay type: biochemical
Conditions: not given
Method: Autophosphorylation, Fluorescence Polarization Competition Immunoassay
The assay buffer used was 100 mM 4-(2-hydroxyethyl)piperazine 1-ethanesulfonic acid (HEPES), pH 7.5, 1 mM 1,4-dithio-DL-threitol (DTT), 0.01% (v/v) Tween-20. Compounds were diluted in assay buffer containing 4% dimethylsulfoxide (DMSO) just prior to the assay. […] The kinase reaction was initiated by adding 2 μL of 5 mM ATP (Sigma) in assay buffer. The final concentrations in the assay were 10 nM c-fms, 1 mM ATP, 5 mM MgCl2, 2% DMSO. Control reactions were ran in each plate: in positive and negative control wells, assay buffer (made 4% in DMSO) was substituted for the compound; in addition, positive control wells received 1.2 μL of 50 mM ethylenediaminetetraaceticacid (EDTA).
The plates were incubated at room temperature for 45 min. At the end of the incubation, the reaction was quenched with 1.2 μL of 50 mM EDTA (EDTA was not added to the positive control wells at this point; see above). Following a 5-min incubation, each well received 10 μL of a 1:1:3 mixture of anti-phosphotyrosine antibody, 10×, PTK green tracer, 10× (vortexed), FP dilution buffer, respectively (all from PanVera, cat. # P2837). The plate was covered, incubated for 30 min at room temperature and the fluorescence polarization was read on the Analyst.
The IC50 values shown in Table 1 are averages of three independent measurements.

Chain of c-fms (P07333 20-972): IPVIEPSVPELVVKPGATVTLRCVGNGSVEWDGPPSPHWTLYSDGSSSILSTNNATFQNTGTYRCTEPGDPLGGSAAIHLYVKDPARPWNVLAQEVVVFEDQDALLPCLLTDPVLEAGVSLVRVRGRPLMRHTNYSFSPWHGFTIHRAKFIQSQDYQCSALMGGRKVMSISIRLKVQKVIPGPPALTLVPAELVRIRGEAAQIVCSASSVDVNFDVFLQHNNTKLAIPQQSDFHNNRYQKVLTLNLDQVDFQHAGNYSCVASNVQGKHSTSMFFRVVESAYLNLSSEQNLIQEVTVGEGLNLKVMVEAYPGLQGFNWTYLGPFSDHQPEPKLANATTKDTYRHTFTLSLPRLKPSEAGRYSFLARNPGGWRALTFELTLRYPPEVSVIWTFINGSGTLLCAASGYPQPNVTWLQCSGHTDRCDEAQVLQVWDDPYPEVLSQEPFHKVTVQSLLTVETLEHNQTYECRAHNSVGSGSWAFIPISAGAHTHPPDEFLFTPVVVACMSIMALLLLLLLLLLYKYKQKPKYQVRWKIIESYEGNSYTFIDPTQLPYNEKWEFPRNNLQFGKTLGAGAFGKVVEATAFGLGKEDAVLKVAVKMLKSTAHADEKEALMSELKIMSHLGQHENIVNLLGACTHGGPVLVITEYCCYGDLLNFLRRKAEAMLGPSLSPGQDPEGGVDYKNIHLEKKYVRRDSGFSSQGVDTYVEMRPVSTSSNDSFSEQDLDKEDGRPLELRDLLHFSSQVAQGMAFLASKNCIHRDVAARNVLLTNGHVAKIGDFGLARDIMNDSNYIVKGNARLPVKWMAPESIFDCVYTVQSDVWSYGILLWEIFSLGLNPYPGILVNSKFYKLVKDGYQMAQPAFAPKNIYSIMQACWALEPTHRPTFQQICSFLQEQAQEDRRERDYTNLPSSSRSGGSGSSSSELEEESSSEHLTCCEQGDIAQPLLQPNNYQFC

IC50 [nM]	Compound
18	NC(=O)c1cn(-c2ccc3c(c2)CCC3)c2nc(Nc3ccc(CN4CCOCC4)cc3)ncc2c1=O [Cpd 69, 8-Indan-5-yl-2-(4-morpholin-4-ylmethyl-phenylamino)-5-oxo-5,8-dihydro-pyrido[2,3-d]pyrimidine-6-carboxylic acid amide]

Same assay, conditions: 10 nM c-fms, 1 mM ATP, 5 mM MgCl2, 45 min room temperature; averages of three independent measurements; read-out: c-fms Autophosphorylation IC50

IC50 [nM]	Compound
50	CNC(=O)c1cn(C2CCCCC2)c2nc(Nc3cccc(N4CCN(C)CC4)c3)ncc2c1=O [Cpd 64, 8-Cyclohexyl-2-[3-(4-methyl-piperazin-1-yl)-phenylamino]-5-oxo-5,8-dihydro-pyrido[2,3-d]pyrimidine-6-carboxylic acid methyl amide]
110	CCNC(=O)c1cn(C2CCCCC2)c2nc(Nc3cccc(N4CCN(C)CC4)c3)ncc2c1=O [Cpd 65, 8-Cyclohexyl-2-[3-(4-methyl-piperazin-1-yl)-phenylamino]-5-oxo-5,8-dihydro-pyrido[2,3-d]pyrimidine-6-carboxylic acid ethyl amide]
120	CC(C)NS(=O)(=O)CCc1ccc(Nc2ncc3c(=O)c(C(N)=O)cn(C4CCCCC4)c3n2)cc1 [Cpd 66, 8-Cyclohexyl-2-[4-(2-isopropylsulfamoyl-ethyl)-phenylamino]-5-oxo-5,8-dihydro-pyrido[2,3-d]pyrimidine-6-carboxylic acid amide]
120	NC(=O)c1cn(C2CCCCC2)c2nc(Nc3ccc(CCS(=O)(=O)N4CCOCC4)cc3)ncc2c1=O [Cpd 67, 8-Cyclohexyl-2-{4-[2-(morpholine-4-sulfonyl)-ethyl]-phenylamino}-5-oxo-5,8-dihydro-pyrido[2,3-d]pyrimidine-6-carboxylic acid amide]
130	CN(C)CC(=O)N1CCC(c2ccc(Nc3ncc4c(=O)c(C(N)=O)cn(C5CCCCC5)c4n3)cc2)CC1 [Cpd 68, 8-Cyclohexyl-2-{4-[1-(2-dimethylamino-acetyl)-piperidin-4-yl]-phenylamino}-5-oxo-5,8-dihydro-pyrido[2,3-d]pyrimidine-6-carboxylic acid amide]
1100	CN(C)CC(=O)N1CCC(c2ccc(Nc3ncc4c(=O)c(C(N)=O)cn(-c5ccc6c(c5)CCC6)c4n3)cc2)CC1 [Cpd 70, 2-{4-[1-(2-Dimethylamino-acetyl)-piperidin-4-yl]-phenylamino}-8-indan-5-yl-5-oxo-5,8-dihydro-pyrido[2,3-d]pyrimidine-6-carboxylic acid amide]
7400	CN(C)CC(=O)N1CCC(c2cccc(Nc3ncc4c(=O)c(C(N)=O)cn(-c5ccc6c(c5)CCC6)c4n3)c2)CC1 [Cpd 71, 2-{3-[1-(2-Dimethylamino-acetyl)-piperidin-4-yl]-phenylamino}-8-indan-5-yl-5-oxo-5,8-dihydro-pyrido[2,3-d]pyrimidine-6-carboxylic acid amide]
4100	CN1CCN(CC(=O)N2CCC(c3ccc(Nc4ncc5c(=O)c(C(N)=O)cn(-c6ccc7c(c6)CCC7)c5n4)cc3)CC2)CC1 [Cpd 72, 8-Indan-5-yl-2-(4-{1-[2-(4-methyl-piperazin-1-yl)-acetyl]-piperidin-4-yl}-phenylamino)-5-oxo-5,8-dihydro-pyrido[2,3-d]pyrimidine-6-carboxylic acid amide]
> 1000	CN1CCN(CC(=O)N2CCC(c3cccc(Nc4ncc5c(=O)c(C(N)=O)cn(-c6ccc7c(c6)CCC7)c5n4)c3)CC2)CC1 [Cpd 73, 8-Indan-5-yl-2-(3-{1-[2-(4-methyl-piperazin-1-yl)-acetyl]-piperidin-4-yl}-phenylamino)-5-oxo-5,8-dihydro-pyrido[2,3-d]pyrimidine-6-carboxylic acid amide]
18	CN(C)Cc1cccc(Nc2ncc3c(=O)c(C(N)=O)cn(-c4ccc5c(c4)CCC5)c3n2)c1 [Cpd 76, 2-(3-Dimethylaminomethyl-phenylamino)-8-indan-5-yl-5-oxo-5,8-dihydro-pyrido[2,3-d]pyrimidine-6-carboxylic acid amide]
150	CNC(=O)c1cn(-c2ccc3c(c2)CCC3)c2nc(Nc3cccc(CN(C)C)c3)ncc2c1=O [Cpd 77, 2-(3-Dimethylaminomethyl-phenylamino)-8-indan-5-yl-5-oxo-5,8-dihydro-pyrido[2,3-d]pyrimidine-6-carboxylic acid methylamide]
140	CCNC(=O)c1cn(-c2ccc3c(c2)CCC3)c2nc(Nc3cccc(CN(C)C)c3)ncc2c1=O [Cpd 78, 2-(3-Dimethylaminomethyl-phenylamino)-8-indan-5-yl-5-oxo-5,8-dihydro-pyrido[2,3-d]pyrimidine-6-carboxylic acid ethylamide]
62	CN(C)C(=O)c1cccc(Nc2ncc3c(=O)c(C(N)=O)cn(-c4ccc5c(c4)CCC5)c3n2)c1 [Cpd 79, 2-(3-Dimethylcarbamoyl-phenylamino)-8-indan-5-yl-5-oxo-5,8-dihydro-pyrido[2,3-d]pyrimidine-6-carboxylic acid amide]
74	CNC(=O)c1cn(-c2ccc3c(c2)CCC3)c2nc(Nc3cccc(C(=O)N(C)C)c3)ncc2c1=O [Cpd 80, 2-(3-Dimethylcarbamoyl-phenylamino)-8-indan-5-yl-5-oxo-5,8-dihydro-pyrido[2,3-d]pyrimidine-6-carboxylic acid methylamide]
110	CCNC(=O)c1cn(-c2ccc3c(c2)CCC3)c2nc(Nc3cccc(C(=O)N(C)C)c3)ncc2c1=O [Cpd 81, 2-(3-Dimethylcarbamoyl-phenylamino)-8-indan-5-yl-5-oxo-5,8-dihydro-pyrido[2,3-d]pyrimidine-6-carboxylic acid ethylamide]
81	CN1CCN(c2ccc(Nc3ncc4c(=O)c(C(N)=O)cn(C5CC6CCC5C6)c4n3)cc2)CC1 (centres unmarked) [Cpd 82, 8-Bicyclo[2.2.1]hept-2-yl-2-[4-(4-methyl-piperazin-1-yl)-phenylamino]-5-oxo-5,8-dihydro-pyrido[2,3-d]pyrimidine-6-carboxylic acid amide]
300	CCNC(=O)c1cn(C2CC3CCC2C3)c2nc(Nc3ccc(N4CCN(C)CC4)cc3)ncc2c1=O (centres unmarked) [Cpd 83, 8-Bicyclo[2.2.1]hept-2-yl-2-[4-(4-methyl-piperazin-1-yl)-phenylamino]-5-oxo-5,8-dihydro-pyrido[2,3-d]pyrimidine-6-carboxylic acid ethylamide]
32	CCNC(=O)c1cn(-c2ccc3c(c2)CCC3)c2nc(Nc3ccc(CN4CCN(C)CC4)cc3)ncc2c1=O [Cpd 84, 8-Indan-5-yl-2-[4-(4-methyl-piperazin-1-ylmethyl)-phenylamino]-5-oxo-5,8-dihydro-pyrido[2,3-d]pyrimidine-6-carboxylic acid ethylamide]

Compound	IC50 [nM]
CNC(=O)c1cn(Cc2ccccc2)c2nc(Nc3ccc(N4CCN(C)CC4)cc3)ncc2c1=O [Cpd 85, 8-Benzyl-2-[4-(4-methyl-piperazin-1-yl)-phenylamino]-5-oxo-5,8-dihydro-pyrido[2,3-d]pyrimidine-6-carboxylic acid methylamide]	420
